Laboratory results as given in patent US4260745A, “3-Halo cephalosporins” (Eli Lilly and Company, priority 1979, dated 1981).
Where two headings read alike, the source gives them in different places.

Columns and labels:
Escherichia coli = experiment: standard disc-plate method, zone of inhibition; format: cell-based; conditions: Table IV, read-out: Zone of Inhibition (diameter in mm); for zone of inhibition at 100 µg/mL: 0.1 mg./ml.; for zone of inhibition at 1000 µg/mL: 1.0 mg./ml.
Description: (§1) The in vitro antimicrobial activity of the 3-halo cephalosporins is illustrated by the data in the following tables. Table I contains the antimicrobial activity for 7-[2-(2-thienyl)acetamido]-3-chloro-3-cephem-4-carboxylic acid obtained in the standard Disc-plate method. The numerical values are the diameter in millimeters of the zones of inhibition observed with the named organisms.
(§2) In Table IV below, the in vitro antimicrobial activity of 7-[2-(2-thienyl)acetamido]-3-bromo-3-cephem-4-carboxylic acid is presented for several illustrative microorganisms. The data presented were obtained in the standard disc-plate method with the numerical values recording the diameter in millimeters of the zones of inhibition observed with the named microorganisms.

Mycobacterium avium = experiment: standard disc-plate method, zone of inhibition; format: cell-based; conditions: Table IV, read-out: Zone of Inhibition (diameter in mm)
Description: as §1, §2

Proteus vulgaris = experiment: standard disc-plate method, zone of inhibition; format: cell-based; conditions: Table IV, read-out: Zone of Inhibition (diameter in mm)
Description: as §1, §2

Electrometric titration = format: physicochemical; conditions: 66% aqueous dmf; only or first pKa; read-out: pKa

Question: For O=C(Cc1cccs1)NC1C(=O)N2C(C(=O)O)=C(Br)CS[C@H]12 (stereo partly drawn) [7-[2-(2-Thienyl)acetamido]-3-bromo-3-cephem-4-carboxylic acid], which zone of inhibition at 10 µg/mL (Escherichia coli; 0.01 mg./ml., Synthetic medium, hazy zone (h)) is on record?
Answer: The zone of inhibition at 10 µg/mL was 11 mm.

Question: And the zone of inhibition at 100 µg/mL (Escherichia coli; Synthetic medium)?
Answer: The zone of inhibition at 100 µg/mL was 18 mm.

Question: What about the zone of inhibition at 100 µg/mL (Escherichia coli) of the same compound?
Answer: The zone of inhibition at 100 µg/mL was 14 mm.

Question: What about the zone of inhibition at 1000 µg/mL (Escherichia coli; Synthetic medium) of the same compound?
Answer: The zone of inhibition at 1000 µg/mL was 27 mm.

Question: What about the zone of inhibition at 1000 µg/mL (Escherichia coli) of the same compound?
Answer: The zone of inhibition at 1000 µg/mL was 23 mm.

Question: What about the zone of inhibition at 10 µg/mL (Mycobacterium avium; 0.01 mg./ml., hazy zone (h)) of the same compound?
Answer: The zone of inhibition at 10 µg/mL was 33 mm.

Question: What about the zone of inhibition at 100 µg/mL (Mycobacterium avium; 0.1 mg./ml., hazy zone (h)) of the same compound?
Answer: The zone of inhibition at 100 µg/mL was 42 mm.

Question: What about the zone of inhibition at 1000 µg/mL (Mycobacterium avium; 1.0 mg./ml.) of the same compound?
Answer: Its zone of inhibition at 1000 µg/mL is 23 mm.

Question: And the zone of inhibition at 10 µg/mL (Proteus vulgaris; 0.01 mg./ml., hazy zone (h))?
Answer: Its zone of inhibition at 10 µg/mL is 11 mm.

Question: And the zone of inhibition at 100 µg/mL (Proteus vulgaris; 0.1 mg./ml.)?
Answer: The zone of inhibition at 100 µg/mL was 20 mm.

Question: And the zone of inhibition at 1000 µg/mL (Proteus vulgaris; 1.0 mg./ml.)?
Answer: Its zone of inhibition at 1000 µg/mL is 28 mm.

Question: And the pKa (Electrometric titration)?
Answer: Its pKa is 4.4.
